Assay results taken from ChEMBL document CHEMBL3751785, “Development and structural analysis of adenosine site binding tankyrase inhibitors” (Bioorg Med Chem Lett, 2016).
pIC50: −log10 of the molar value.

Tests used:
[1] = molecular target: Poly [ADP-ribose] polymerase 2 (Homo sapiens, UniProt Q9UGN5); experiment: Inhibition of human ARTD2 by fluorescence analysis
[2] = molecular target: T1, Protein mono-ADP-ribosyltransferase PARP15 (Homo sapiens, UniProt Q460N3); experiment: Inhibition of human ARTD7 by fluorescence analysis
T1 sequence (Q460N3 whole entry): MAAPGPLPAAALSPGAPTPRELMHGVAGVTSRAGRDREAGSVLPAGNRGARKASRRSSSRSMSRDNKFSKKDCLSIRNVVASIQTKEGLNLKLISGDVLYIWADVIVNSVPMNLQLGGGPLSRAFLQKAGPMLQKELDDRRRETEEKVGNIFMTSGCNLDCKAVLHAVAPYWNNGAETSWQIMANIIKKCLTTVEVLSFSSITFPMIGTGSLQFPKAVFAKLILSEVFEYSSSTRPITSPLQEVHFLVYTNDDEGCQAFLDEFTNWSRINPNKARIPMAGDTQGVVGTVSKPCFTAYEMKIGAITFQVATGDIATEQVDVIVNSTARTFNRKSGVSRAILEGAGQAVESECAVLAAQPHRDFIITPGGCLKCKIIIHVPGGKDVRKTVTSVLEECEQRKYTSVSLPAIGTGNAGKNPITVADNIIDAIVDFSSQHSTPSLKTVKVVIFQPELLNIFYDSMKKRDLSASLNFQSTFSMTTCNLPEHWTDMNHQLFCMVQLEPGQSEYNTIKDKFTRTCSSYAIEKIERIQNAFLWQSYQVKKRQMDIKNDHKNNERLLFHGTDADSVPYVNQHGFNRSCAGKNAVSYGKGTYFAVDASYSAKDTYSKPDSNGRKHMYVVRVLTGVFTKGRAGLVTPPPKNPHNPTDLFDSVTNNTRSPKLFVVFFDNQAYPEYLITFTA

[3] = molecular target: T2, Protein mono-ADP-ribosyltransferase PARP10 (Homo sapiens, UniProt Q53GL7); experiment: Inhibition of human ARTD10 by fluorescence analysis
T2 sequence (Q53GL7 whole entry): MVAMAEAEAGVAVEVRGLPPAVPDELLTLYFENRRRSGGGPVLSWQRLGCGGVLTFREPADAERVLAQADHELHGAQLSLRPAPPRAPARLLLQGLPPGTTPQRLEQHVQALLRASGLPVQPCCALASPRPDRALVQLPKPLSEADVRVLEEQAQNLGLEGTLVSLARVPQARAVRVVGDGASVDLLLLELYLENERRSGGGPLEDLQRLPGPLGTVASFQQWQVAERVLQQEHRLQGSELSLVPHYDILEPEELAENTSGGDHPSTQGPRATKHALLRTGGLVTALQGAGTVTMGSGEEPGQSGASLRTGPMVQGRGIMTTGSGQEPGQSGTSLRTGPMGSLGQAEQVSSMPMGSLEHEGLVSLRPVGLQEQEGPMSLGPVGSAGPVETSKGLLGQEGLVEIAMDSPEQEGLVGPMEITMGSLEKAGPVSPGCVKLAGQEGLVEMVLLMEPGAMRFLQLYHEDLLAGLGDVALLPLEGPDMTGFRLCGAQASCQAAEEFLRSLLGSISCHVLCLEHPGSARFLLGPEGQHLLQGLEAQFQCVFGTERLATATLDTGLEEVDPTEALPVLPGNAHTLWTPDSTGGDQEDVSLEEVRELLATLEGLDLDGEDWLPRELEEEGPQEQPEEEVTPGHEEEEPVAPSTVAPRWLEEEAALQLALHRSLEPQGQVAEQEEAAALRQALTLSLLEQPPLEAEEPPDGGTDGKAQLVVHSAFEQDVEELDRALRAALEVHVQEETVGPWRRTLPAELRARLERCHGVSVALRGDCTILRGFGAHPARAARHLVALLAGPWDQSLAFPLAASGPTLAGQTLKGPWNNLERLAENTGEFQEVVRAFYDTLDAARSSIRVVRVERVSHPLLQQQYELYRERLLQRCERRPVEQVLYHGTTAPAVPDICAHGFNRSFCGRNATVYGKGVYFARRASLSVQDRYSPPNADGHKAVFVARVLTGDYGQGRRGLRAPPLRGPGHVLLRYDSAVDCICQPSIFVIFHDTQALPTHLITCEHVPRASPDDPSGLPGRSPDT

[4] = molecular target: T3, Protein mono-ADP-ribosyltransferase PARP12 (Homo sapiens, UniProt Q9H0J9); experiment: Inhibition of human ARTD12 by fluorescence analysis
T3 sequence (Q9H0J9 whole entry): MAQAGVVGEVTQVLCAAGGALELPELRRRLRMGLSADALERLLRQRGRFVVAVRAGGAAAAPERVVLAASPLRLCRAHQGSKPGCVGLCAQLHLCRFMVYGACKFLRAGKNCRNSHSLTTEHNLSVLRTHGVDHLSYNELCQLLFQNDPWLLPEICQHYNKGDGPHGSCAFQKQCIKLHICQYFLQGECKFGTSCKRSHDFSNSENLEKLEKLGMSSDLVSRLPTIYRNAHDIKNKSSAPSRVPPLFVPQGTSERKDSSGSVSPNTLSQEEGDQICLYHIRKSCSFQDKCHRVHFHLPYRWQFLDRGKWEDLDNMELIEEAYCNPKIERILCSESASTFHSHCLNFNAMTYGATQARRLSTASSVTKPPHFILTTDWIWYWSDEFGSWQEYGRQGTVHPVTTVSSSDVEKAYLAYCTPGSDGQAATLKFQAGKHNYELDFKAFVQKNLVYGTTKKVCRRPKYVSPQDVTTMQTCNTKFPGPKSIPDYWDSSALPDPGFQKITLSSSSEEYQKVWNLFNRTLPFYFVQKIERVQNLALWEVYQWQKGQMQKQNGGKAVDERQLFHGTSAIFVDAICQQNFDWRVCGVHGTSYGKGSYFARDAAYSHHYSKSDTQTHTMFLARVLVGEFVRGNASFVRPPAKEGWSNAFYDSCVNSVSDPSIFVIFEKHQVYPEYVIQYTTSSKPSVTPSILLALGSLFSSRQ

[5] = molecular target: T4, Protein mono-ADP-ribosyltransferase PARP3 (Homo sapiens, UniProt Q9Y6F1); experiment: Inhibition of human ARTD3 by fluorescence analysis
T4 sequence (Q9Y6F1 whole entry): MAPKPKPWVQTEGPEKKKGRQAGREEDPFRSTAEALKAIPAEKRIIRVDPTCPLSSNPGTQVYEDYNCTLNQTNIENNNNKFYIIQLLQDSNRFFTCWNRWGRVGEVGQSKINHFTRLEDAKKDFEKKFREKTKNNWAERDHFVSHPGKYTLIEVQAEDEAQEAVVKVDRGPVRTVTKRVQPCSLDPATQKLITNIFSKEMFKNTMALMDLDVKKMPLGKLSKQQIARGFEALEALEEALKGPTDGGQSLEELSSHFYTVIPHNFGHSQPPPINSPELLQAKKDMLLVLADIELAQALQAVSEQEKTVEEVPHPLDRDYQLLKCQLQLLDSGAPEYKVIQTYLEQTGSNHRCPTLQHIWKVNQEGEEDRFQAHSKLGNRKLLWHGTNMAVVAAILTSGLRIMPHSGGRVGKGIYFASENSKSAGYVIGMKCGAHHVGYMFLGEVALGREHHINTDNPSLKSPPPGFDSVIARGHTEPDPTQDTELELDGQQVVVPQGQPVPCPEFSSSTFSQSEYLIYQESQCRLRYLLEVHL

[6] = molecular target: Poly [ADP-ribose] polymerase 1 (Homo sapiens, UniProt P09874); experiment: Inhibition of human ARTD1 by fluorescence analysis
[7] = molecular target: Protein mono-ADP-ribosyltransferase PARP4 (Homo sapiens, UniProt Q9UKK3); experiment: Inhibition of human ARTD4 by fluorescence analysis
[8] = molecular target: Protein mono-ADP-ribosyltransferase PARP14 (Homo sapiens, UniProt Q460N5); experiment: Inhibition of human ARTD8 by fluorescence analysis
Chain of Protein mono-ADP-ribosyltransferase PARP14 (Q460N5 whole entry): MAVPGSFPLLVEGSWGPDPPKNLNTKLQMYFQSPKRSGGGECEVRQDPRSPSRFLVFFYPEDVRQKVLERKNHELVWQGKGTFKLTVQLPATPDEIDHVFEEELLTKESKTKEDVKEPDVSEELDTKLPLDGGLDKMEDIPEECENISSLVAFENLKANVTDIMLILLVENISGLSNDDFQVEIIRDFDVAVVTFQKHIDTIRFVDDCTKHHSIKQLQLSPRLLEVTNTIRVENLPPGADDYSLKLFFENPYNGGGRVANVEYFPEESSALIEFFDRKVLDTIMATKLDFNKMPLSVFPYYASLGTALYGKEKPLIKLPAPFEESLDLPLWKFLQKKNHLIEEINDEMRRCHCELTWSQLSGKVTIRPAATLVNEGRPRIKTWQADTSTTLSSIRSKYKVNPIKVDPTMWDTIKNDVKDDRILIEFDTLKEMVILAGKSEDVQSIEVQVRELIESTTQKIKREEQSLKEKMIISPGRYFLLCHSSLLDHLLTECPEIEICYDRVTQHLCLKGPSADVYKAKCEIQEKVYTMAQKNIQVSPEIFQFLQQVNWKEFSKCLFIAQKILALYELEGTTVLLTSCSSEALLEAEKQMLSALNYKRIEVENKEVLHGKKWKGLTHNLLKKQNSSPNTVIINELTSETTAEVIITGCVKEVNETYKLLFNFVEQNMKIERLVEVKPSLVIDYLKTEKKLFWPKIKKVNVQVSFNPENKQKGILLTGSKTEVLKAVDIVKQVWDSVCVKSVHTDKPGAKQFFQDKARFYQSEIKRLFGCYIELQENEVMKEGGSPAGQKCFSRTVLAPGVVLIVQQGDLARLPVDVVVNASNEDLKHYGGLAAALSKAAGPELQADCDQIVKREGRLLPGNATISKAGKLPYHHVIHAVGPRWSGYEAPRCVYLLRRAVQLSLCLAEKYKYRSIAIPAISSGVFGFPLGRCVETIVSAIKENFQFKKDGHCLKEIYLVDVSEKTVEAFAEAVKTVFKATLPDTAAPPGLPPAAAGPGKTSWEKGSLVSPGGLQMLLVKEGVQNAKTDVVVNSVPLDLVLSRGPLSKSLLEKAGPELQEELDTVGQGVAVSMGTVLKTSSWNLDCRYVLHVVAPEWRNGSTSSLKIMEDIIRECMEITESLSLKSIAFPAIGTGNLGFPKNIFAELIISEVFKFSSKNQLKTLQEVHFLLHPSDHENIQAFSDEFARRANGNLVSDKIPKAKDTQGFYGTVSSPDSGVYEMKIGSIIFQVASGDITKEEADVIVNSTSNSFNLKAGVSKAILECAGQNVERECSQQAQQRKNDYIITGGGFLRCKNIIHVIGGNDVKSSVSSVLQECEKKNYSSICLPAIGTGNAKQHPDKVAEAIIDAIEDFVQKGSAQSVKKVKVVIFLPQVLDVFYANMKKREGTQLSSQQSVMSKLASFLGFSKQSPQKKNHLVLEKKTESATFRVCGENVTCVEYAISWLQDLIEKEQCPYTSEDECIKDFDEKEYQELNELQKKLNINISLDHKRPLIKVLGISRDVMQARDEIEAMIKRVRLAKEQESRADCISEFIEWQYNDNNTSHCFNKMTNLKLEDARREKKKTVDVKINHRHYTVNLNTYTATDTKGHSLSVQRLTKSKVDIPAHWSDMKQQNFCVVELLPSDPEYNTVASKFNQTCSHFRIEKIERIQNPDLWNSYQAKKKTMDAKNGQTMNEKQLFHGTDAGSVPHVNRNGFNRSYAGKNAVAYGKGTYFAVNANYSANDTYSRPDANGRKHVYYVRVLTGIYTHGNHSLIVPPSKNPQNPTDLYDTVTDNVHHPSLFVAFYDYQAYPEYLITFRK

Chain of Protein mono-ADP-ribosyltransferase PARP4 (Q9UKK3 whole entry): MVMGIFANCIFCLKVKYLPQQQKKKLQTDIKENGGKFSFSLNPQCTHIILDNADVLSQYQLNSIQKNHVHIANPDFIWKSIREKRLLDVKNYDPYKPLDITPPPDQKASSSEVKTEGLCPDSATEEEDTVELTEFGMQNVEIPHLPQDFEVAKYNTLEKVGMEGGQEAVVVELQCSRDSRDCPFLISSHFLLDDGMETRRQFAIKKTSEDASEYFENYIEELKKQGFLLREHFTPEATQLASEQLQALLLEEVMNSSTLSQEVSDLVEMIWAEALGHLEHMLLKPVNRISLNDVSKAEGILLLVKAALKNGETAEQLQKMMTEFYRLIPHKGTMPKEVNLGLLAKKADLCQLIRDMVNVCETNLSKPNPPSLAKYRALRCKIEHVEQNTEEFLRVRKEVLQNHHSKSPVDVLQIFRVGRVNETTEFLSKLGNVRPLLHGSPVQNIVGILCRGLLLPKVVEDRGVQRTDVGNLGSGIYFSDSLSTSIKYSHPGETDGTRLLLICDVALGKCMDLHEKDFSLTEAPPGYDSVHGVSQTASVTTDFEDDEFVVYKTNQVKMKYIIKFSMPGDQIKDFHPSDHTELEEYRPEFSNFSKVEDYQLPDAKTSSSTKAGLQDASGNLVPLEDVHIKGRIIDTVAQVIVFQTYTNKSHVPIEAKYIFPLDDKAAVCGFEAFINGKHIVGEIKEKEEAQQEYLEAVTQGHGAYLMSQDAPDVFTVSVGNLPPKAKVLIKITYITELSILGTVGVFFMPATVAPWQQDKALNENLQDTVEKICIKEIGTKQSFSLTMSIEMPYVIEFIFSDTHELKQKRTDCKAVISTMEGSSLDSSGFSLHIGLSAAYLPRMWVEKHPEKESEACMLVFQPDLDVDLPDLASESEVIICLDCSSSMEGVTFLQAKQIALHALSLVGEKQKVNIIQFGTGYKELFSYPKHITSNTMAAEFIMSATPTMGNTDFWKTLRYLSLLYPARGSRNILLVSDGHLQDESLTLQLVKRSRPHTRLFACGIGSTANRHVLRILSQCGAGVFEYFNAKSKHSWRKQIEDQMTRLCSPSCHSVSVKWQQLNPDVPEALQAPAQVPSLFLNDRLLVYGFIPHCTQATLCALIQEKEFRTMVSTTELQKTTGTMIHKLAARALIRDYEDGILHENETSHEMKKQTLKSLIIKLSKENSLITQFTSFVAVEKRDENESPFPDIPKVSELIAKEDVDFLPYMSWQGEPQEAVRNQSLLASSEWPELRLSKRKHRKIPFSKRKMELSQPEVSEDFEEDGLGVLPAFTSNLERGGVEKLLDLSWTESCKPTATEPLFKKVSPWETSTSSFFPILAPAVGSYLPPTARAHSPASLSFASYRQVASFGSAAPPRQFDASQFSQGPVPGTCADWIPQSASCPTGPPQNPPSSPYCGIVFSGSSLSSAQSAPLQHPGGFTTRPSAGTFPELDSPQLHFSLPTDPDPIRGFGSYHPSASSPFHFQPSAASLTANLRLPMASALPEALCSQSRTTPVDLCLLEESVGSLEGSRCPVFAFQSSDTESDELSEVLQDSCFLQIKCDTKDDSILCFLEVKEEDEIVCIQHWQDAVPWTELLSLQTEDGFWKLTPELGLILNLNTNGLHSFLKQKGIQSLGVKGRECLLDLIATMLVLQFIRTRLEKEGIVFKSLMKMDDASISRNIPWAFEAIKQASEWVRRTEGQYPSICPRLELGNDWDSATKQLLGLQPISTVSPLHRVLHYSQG
Chain of Poly [ADP-ribose] polymerase 1 (P09874 whole entry): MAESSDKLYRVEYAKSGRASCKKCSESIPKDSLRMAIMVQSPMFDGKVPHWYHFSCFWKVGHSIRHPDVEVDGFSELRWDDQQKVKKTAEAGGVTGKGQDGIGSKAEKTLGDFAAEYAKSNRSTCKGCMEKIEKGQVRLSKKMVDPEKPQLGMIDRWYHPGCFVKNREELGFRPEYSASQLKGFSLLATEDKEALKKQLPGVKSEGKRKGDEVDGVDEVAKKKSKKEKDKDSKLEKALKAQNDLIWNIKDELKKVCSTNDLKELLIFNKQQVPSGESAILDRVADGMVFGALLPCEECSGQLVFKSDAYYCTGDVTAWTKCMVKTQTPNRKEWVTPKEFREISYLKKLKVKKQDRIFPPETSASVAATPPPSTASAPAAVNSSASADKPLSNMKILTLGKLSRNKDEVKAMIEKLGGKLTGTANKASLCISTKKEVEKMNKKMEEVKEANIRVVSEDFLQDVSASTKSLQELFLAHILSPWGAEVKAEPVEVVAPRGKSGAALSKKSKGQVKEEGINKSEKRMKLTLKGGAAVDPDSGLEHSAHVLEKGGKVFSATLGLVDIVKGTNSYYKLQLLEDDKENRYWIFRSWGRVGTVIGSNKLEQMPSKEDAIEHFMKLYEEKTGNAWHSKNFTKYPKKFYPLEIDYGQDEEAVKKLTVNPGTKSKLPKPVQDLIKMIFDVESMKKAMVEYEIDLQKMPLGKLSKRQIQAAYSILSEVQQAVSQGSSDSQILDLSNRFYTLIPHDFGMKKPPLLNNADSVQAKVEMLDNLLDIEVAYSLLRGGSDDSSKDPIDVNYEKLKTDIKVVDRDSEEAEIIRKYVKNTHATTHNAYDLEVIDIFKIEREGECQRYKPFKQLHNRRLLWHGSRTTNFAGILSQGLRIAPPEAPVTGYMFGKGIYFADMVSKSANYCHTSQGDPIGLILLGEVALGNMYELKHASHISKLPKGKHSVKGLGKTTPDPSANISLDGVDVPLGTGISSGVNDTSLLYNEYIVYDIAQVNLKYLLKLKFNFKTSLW
Chain of Poly [ADP-ribose] polymerase 2 (Q9UGN5 whole entry): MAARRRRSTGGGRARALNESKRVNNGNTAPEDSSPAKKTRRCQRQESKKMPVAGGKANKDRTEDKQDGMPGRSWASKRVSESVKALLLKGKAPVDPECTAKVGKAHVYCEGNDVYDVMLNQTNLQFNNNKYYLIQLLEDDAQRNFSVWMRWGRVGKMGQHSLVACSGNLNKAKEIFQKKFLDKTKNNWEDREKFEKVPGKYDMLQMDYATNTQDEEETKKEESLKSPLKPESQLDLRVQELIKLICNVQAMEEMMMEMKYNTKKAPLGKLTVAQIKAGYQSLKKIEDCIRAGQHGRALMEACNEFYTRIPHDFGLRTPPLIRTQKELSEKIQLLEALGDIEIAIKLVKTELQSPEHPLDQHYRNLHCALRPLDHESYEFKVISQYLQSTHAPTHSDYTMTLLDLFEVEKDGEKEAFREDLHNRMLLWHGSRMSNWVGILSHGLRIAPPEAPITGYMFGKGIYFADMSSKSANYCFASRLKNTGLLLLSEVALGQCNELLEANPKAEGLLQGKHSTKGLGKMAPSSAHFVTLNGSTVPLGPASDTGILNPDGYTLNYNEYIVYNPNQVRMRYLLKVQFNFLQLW

COc1ccc(C(=O)Nc2ccc(C(=O)N(c3ccncn3)c3ccccc3Cl)cc2)cc1
pIC50 [1]: < 4.00
pIC50 [2]: < 5.00
pIC50 [3]: < 5.00
pIC50 [4]: < 5.00
pIC50 [5]: < 4.00
pIC50 [6]: 4.11
pIC50 [7]: < 4.00
pIC50 [8]: < 5.00
